Measurements taken from paper PMC6553708 (PLoS ONE, 2019).
Where “and” joins values, the source holds several entries; their conditions need not be identical. Equal values may be shown once. Read-outs that look alike come from different tables or passages of the source.

Experiments:
[1] = target: T1, Serotonin Transporter (SERT) (Homo sapiens, UniProt P31645); assay: cell-based
T1 construct: HA (N); host or cells: HEK293 (ATCC CRL-1573), electroporated, G418-selected population

[2] = target: T2, Dopamine Transporter (DAT) (Homo sapiens, UniProt Q01959); assay: cell-based; assay type: cell-based; settings: for Emax at 10 µM: read-out: DAT IMAX, in parentheses: maximum efficacy at 10 μM
T2 construct: HA (N); host or cells: HEK293 (ATCC CRL-1573), electroporated, G418-selected population

[3] = target: T2, Dopamine Transporter (DAT); assay: biochemical; assay type: binding
[4] = target: T3, Kappa Opioid Receptor (KOR) (Homo sapiens, UniProt P41145); assay type: biochemical
T3 construct: membranes used

[5] = target: T4, Norepinephrine Transporter (NET) (Homo sapiens, UniProt P23975); assay: cell-based; settings: for Emax at 10 µM: read-out: NET IMAX, in parentheses: maximum efficacy at 10 μM
T4 construct: HA (N); host or cells: HEK293 (ATCC CRL-1573), electroporated, G418-selected population

[6] = target: T3, Kappa Opioid Receptor (KOR); assay: biochemical; assay type: binding
[7] = target: T5, Mu Opioid Receptor (MOR) (Homo sapiens, UniProt P35372); assay: biochemical; settings: for Emax: read-out: MOR EMAX (35S-GTPγS)
[8] = cited from earlier work
[9] = target: T6, Cannabinoid Receptor Type 1 (CB1) (Homo sapiens, UniProt P21554); assay: biochemical
T6 construct: membranes used

[10] = target: T3, Kappa Opioid Receptor (KOR); assay: biochemical; settings: for Emax at 10 µM: read-out: KOR EMAX, in parentheses: maximum efficacy at 10 μM
[11] = test system: MOR; settings: cited from earlier work
[12] = target: T7, Sigma-1 Receptor (σ1R) (Homo sapiens, UniProt Q99720); assay: biochemical; assay type: binding
T7 construct: HA (N); host or cells: HEK293 (ATCC CRL-1573), electroporated, G418-selected population; membranes used

[13] = test system: CD-1 mice; settings: male CD-1 mice
[14] = target: T8, Delta Opioid Receptor (DOR) (Homo sapiens, UniProt P41143); assay type: biochemical
T8 construct: 3X-hemagglutinin (HA) (N); expressed in transfected cells; membranes used

[15] = target: T5, Mu Opioid Receptor (MOR); assay: biochemical; assay type: binding
[16] = target: T1, Serotonin Transporter (SERT); assay: biochemical; assay type: binding

T2 sequence (Q01959 whole entry): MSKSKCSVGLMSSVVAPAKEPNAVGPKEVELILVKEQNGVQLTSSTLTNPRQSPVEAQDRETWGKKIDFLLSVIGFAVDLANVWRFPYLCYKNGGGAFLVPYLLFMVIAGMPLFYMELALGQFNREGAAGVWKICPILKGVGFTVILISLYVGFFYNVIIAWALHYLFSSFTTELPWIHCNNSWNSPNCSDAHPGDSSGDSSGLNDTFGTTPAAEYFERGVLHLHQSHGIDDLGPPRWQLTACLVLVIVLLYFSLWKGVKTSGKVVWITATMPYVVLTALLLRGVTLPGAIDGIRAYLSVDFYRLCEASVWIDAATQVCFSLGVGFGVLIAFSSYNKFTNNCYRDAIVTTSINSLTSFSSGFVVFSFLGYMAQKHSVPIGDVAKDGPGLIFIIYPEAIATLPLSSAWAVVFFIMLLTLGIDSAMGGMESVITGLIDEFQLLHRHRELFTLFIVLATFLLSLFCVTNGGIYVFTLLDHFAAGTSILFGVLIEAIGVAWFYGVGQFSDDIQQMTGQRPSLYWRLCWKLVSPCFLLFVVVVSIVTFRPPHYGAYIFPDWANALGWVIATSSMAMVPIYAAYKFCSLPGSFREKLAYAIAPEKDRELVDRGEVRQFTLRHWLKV
T8 sequence (P41143 whole entry): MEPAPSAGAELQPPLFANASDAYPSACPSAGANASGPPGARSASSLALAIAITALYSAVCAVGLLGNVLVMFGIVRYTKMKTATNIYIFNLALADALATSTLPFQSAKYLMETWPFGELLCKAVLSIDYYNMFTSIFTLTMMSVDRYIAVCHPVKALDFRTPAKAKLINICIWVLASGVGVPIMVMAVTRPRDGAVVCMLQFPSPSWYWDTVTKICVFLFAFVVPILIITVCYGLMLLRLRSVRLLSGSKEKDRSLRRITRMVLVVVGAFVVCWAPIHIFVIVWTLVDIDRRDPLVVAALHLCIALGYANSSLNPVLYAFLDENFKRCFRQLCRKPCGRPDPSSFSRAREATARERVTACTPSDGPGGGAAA
T4 sequence (P23975 whole entry): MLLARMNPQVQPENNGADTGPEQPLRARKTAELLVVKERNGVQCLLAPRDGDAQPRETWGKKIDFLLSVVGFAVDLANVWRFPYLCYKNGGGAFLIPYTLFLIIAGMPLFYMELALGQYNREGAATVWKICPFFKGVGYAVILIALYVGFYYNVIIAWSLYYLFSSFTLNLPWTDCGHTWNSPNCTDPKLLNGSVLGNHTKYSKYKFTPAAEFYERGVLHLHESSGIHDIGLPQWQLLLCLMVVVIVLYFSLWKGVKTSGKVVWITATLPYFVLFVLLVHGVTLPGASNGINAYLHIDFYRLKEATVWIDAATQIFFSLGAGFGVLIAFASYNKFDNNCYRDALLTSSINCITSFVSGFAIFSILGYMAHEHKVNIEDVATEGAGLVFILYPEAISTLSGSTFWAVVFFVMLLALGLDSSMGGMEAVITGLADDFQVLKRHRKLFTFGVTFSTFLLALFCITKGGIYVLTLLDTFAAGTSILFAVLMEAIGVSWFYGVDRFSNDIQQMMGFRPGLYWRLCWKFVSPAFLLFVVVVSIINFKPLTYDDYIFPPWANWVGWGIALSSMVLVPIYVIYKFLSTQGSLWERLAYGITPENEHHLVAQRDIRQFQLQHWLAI
T1 sequence (P31645 whole entry): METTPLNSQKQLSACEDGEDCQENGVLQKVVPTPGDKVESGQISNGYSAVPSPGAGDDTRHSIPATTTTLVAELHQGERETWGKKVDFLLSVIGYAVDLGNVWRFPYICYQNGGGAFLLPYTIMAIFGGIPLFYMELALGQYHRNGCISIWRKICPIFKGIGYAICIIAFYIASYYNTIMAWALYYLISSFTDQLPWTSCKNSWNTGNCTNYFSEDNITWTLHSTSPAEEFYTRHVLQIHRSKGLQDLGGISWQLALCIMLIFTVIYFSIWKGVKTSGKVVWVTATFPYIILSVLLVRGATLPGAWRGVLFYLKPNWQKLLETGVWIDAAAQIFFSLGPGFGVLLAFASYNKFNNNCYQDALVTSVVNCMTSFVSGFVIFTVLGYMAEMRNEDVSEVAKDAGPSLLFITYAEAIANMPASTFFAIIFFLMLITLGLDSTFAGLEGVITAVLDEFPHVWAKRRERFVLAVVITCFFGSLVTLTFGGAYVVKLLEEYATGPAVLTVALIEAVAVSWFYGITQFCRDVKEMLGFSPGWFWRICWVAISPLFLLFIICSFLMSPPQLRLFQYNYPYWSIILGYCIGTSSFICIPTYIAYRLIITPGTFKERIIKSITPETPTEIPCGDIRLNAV
T3 sequence (P41145 whole entry): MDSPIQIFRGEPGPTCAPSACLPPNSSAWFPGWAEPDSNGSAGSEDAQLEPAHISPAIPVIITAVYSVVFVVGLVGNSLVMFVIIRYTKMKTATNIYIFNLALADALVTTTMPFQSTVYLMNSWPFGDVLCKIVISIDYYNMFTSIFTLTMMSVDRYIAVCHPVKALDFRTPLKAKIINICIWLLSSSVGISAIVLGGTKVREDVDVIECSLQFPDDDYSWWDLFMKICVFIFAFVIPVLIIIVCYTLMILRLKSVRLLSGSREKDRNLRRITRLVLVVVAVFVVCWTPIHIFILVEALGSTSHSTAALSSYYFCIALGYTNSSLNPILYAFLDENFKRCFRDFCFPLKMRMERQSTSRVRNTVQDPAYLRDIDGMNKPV
T6 sequence (P21554 whole entry): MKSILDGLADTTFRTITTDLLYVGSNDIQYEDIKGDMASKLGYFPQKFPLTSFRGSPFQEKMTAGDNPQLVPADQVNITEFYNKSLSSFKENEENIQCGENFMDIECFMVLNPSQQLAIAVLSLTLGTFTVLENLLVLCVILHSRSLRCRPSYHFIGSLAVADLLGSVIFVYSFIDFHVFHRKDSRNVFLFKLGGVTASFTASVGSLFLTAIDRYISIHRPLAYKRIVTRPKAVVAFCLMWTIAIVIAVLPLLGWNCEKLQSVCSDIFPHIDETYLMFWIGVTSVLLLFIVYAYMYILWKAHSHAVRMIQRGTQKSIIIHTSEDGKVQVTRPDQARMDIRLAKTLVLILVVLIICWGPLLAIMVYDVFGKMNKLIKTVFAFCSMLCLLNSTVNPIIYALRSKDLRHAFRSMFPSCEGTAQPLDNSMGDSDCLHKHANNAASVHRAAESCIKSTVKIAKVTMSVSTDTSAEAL
T7 sequence (Q99720 whole entry): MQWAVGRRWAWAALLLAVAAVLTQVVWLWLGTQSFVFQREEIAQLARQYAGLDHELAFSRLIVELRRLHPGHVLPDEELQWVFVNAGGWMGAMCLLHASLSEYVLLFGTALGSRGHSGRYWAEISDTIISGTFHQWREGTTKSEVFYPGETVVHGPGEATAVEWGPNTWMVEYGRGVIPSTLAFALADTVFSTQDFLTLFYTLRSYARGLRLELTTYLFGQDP
T5 sequence (P35372 whole entry): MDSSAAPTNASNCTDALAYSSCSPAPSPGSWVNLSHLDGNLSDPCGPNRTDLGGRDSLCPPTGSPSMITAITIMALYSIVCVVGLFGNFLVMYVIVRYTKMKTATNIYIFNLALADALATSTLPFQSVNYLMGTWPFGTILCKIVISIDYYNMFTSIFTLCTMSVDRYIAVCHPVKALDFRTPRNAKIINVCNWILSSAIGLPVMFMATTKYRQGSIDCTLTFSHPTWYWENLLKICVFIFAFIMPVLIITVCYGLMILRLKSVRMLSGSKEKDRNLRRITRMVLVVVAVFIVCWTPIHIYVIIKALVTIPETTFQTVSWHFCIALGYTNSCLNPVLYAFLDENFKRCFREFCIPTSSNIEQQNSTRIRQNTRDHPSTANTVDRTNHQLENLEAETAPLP

Fc1ccc(C(OCCN2CCN(CCCc3ccccc3)CC2)c2ccc(F)cc2)cc1 [GBR12909]
SERT IMAX (transporter assay) [1]: 100 ± 0.4%

COc1cccc(C2(O)CCCCC2CN(C)C)c1 (stereo not shown) [Tramadol]
IC50 [2]: > 10000 nM | Emax at 10 µM [2]: 22% | Ki [3]: > 2000 nM | KOR antagonist activity (in words) [4]: no KOR antagonist activity | Emax at 10 µM [5]: 57% | Ki [6]: 890 ± 33 nM | MOR EMAX (35S-GTPγS) [7]: 26 ± 6% | Emax [7]: 25.5%

CN1CC[C@]23c4c5ccc(O)c4O[C@H]2[C@@H](O)C=C[C@H]3[C@H]1C5 [Morphine]
operational efficacy τ in vivo ([8]; ref [13]–[15]): 20–39 and 39 | EC50 [9]: > 2000 nM | Potential new finding: activity at CB1 (in words) [9]: CB1 partial agonist | Emax at 10 µM ([9]; read-out: CB1 EMAX, in parentheses: maximum efficacy at 10 μM): > 41.5%

COc1ccc2c3c1O[C@H]1C(=O)CC[C@@]4(O)[C@@H](C2)N(C)CC[C@]314 [Oxycodone]
Emax at 10 µM [10]: 9.6% | operational efficacy τ in vivo [8]: 20–39 | KOR antagonist activity (in words) [4]: no KOR antagonist activity | operational efficacy τ in vitro [11]: 3.3–5.2 | Emax [7]: 90 ± 8%

CCC(=O)C(CC(C)N(C)C)(c1ccccc1)c1ccccc1 (stereo not shown) [methadone]
operational efficacy τ in vivo [8]: 39

COc1ccc2c3c1O[C@H]1C(=O)CC[C@H]4[C@@H](C2)N(C)CC[C@]314 [Hydrocodone]
Ki [12]: 4000 ± 1300 nM | Potential new finding: σ1R binding (in words) [12]: KOR partial agonist; CB1 partial agonist; σ1R binding

CNCC[C@H](Oc1cccc2ccccc12)c1cccs1 [S-Duloxetine, S-duloxetine]
AUC increase of buprenorphine anti-nociception (tail flick) ([13]; duloxetine 20 mg/kg intraperitoneal 10 minutes before buprenorphine 0.2 mg/kg subcutaneous, 52°C water, 2 hour time course): 50.6% | Effect on oxymorphone anti-nociception (tail flick) ([13]; duloxetine 20 mg/kg intraperitoneal 10 minutes before oxymorphone 0.3 mg/kg subcutaneous, p > 0.05): no effect | Effect on tail flick baselines ([13]; duloxetine 20 mg/kg intraperitoneal alone (followed by vehicle)): no effect

Buprenorphine
Potential new finding: activity at SERT (in words) [1]: CB1 inverse agonist; Monoamine transporter activator | SERT IMAX, in parentheses: maximum efficacy at 10 μM [1]: (-20) % | DAT IMAX, in parentheses: maximum efficacy at 10 μM [2]: (-67) % | DAT transport activation [2]: 67.2% | Potential new finding: activity at DAT (in words) [2]: CB1 inverse agonist; Monoamine transporter activator | NET IMAX, in parentheses: maximum efficacy at 10 μM [5]: (-26) % | Potential new finding: activity at NET (in words) [5]: CB1 inverse agonist; Monoamine transporter activator | CB1 EMAX, in parentheses: maximum efficacy at 10 μM [9]: (-38) % | Potential new finding: activity at CB1 (in words) [9]: CB1 inverse agonist; Monoamine transporter activator

CN(C)C[C@H]1CCCC[C@]1(O)c1cccc(O)c1 [O-Desmethyl-Tramadol, O-desmethyl-tramadol]
KOR EMAX, in parentheses: maximum efficacy at 10 μM [10]: (5.9) % | Potential new finding: activity at KOR (in words) [10]: DOR/KOR partial agonist | EC50 ([10]; read-out: KOR EC50 (35S-GTPγS)): > 2000 nM | DOR EMAX (35S-GTPγS) [14]: 38 ± 14% | Potential new finding: activity at DOR (in words) [14]: DOR/KOR partial agonist | EC50 ([14]; read-out: DOR EC50 (35S-GTPγS)): 361 nM and 360 nM | NET IMAX, in parentheses: maximum efficacy at 10 μM [5]: (29) % | IC50 ([5]; read-out: NET IC50 (transporter assay)): > 2000 nM | Ki ([6]; read-out: Target Binding Affinity Determined by Competition Radioligand Binding–KI, KOR): > 2000 nM

CC[C@@H](c1cccc(O)c1)[C@@H](C)CN(C)C [Tapentadol]
IC50 [1]: > 2000 nM | Emax at 10 µM ([1]; read-out: SERT IMAX, in parentheses: maximum efficacy at 10 μM): 68% | Potential new finding: activity at KOR (in words) [10]: KOR partial agonist; σ1R binding | EC50 ([10]; KOR EC50 (35S-GTPγS)): > 2000 nM | Emax at 10 µM [10]: 13% | Ki [12]: 2600 ± 410 nM | Potential new finding: σ1R binding (in words) [12]: KOR partial agonist; σ1R binding | σ1R binding affinity fold vs. MOR affinity [12]: nearly the same affinity as the MOR and approximately equal affinity to MOR and same | Ki [15]: 2100 ± 84 nM | IC50 [2]: > 10000 nM | Emax at 10 µM [2]: 19% | Ki [3]: > 2000 nM | Ki [16]: > 2000 nM | IC50 [5]: > 2000 nM | Emax at 10 µM [5]: 61% | Ki [6]: > 2000 nM | EC50 ([7]; MOR EC50 (35S-GTPγS)): 1300 ± 530 nM | Emax [7]: 73 ± 7%

NC(=O)[C@H](Cc1ccccc1)NC(=O)[C@H](Cc1ccccc1)NC(=O)[C@@H]1CCCN1C(=O)[C@@H](N)Cc1ccc(O)cc1 [Endomorphin-2]
Emax [7]: 97 ± 2%
